Measurements as given in ChEMBL document CHEMBL4316596, “Antimicrobial Peptides with High Proteolytic Resistance for Combating Gram-Negative Bacteria” (J Med Chem, 2019).
pIC50: −log10 of the molar value. In brackets after ≈: the same amount, converted by molar mass. Activity calls are given as the source filed them. The rule behind the calls is not given here.

Key:
Escherichia coli [1] = assay: Antimicrobial activity against Escherichia coli 078 after 24 hrs by NCCLS-protocol based assay; format: functional; conditions: Escherichia coli, 078, 24 h
Escherichia coli [2] = assay: Bactericidal activity against Escherichia coli ATCC 25922 incubated for 4 hrs followed by culture spread on agar plates and cultured overnight in presence of 50% serum albumin; format: functional; conditions: ATCC 25922, 4 h, read-out: MBC>99.9
Escherichia coli [3] = assay: Bactericidal activity against Escherichia coli ATCC 25922 incubated for 4 hrs followed by culture spread on agar plates and cultured overnight in presence of 12.5% serum albumin; format: functional; conditions: ATCC 25922, 4 h, read-out: MBC>99.9
Escherichia coli [4] = assay: Induction of cytoplasmic membrane depolarization in Escherichia coli ATCC 25922 at 2 uM up to 5000 secs by DiSC3-5 dye-based fluorescence spectrophotometric method; format: functional, organism-based
Escherichia coli [5] = assay: Antimicrobial activity against Escherichia coli K99 after 24 hrs by NCCLS-protocol based assay; format: functional; conditions: K99, 24 h
Pseudomonas aeruginosa [6] = assay: Antimicrobial activity against Pseudomonas aeruginosa PAO1 after 24 hrs by NCCLS-protocol based assay; format: functional; conditions: PAO1, 24 h
Escherichia coli [7] = assay: Antimicrobial activity against Escherichia coli K88 after 24 hrs by NCCLS-protocol based assay; format: functional; conditions: K88, 24 h
Salmonella typhimurium [8] = assay: Bactericidal activity against Salmonella typhimurium C7731 incubated for 4 hrs followed by culture spread on agar plates and cultured overnight; format: functional, Salmonella enterica subsp. enterica serovar Typhimurium; conditions: Salmonella enterica, C7731, 4 h; read-out: MBC>99.9
Escherichia coli [9] = assay: Induction of outer membrane permeabilization in Escherichia coli ATCC 25922 at 1 uM by NPN-dye based assay relative to control
Klebsiella pneumoniae = assay: Bactericidal activity against Klebsiella pneumoniae incubated for 4 hrs followed by culture spread on agar plates and cultured overnight; format: functional; conditions: read-out: MBC>99.9
[10] = Selectivity ratio of IC50 for pig IPECJ2 cells to geometric mean of the peptide MBC for bacteria
[11] = Antimicrobial activity against Salmonella pullorum C7913 after 24 hrs by NCCLS-protocol based assay; format: functional, Salmonella enterica subsp. enterica serovar Pullorum; conditions: Salmonella enterica, C7913, 24 h
Acinetobacter baumannii = assay: Bactericidal activity against Acinetobacter baumannii incubated for 4 hrs followed by culture spread on agar plates and cultured overnight; format: functional; conditions: read-out: MBC>99.9
Pseudomonas aeruginosa [12] = assay: Bactericidal activity against Pseudomonas aeruginosa 25349 clinical isolates incubated for 4 hrs followed by culture spread on agar plates and cultured overnight; format: functional; conditions: Pseudomonas aeruginosa, 25349, 4 h; read-out: MBC>99.9
Escherichia coli [13] = assay: Antimicrobial activity against Escherichia coli ATCC 25922 after 24 hrs by NCCLS-protocol based assay; format: functional; conditions: ATCC 25922, 24 h
Pseudomonas aeruginosa [14] = assay: Antimicrobial activity against Pseudomonas aeruginosa 25349 clinical isolates after 24 hrs by NCCLS-protocol based assay; format: functional; conditions: Pseudomonas aeruginosa, 25349, 24 h
Escherichia coli [15] = assay: Bactericidal activity against Escherichia coli UB1005 incubated for 4 hrs followed by culture spread on agar plates and cultured overnight; format: functional; conditions: UB1005, 4 h, read-out: MBC>99.9
Salmonella typhimurium [16] = assay: Bactericidal activity against Salmonella typhimurium ATCC 14028 incubated for 4 hrs followed by culture spread on agar plates and cultured overnight; format: functional, Salmonella enterica subsp. enterica serovar Typhimurium; conditions: Salmonella enterica, ATCC 14028, 4 h; read-out: MBC>99.9
Escherichia coli [17] = assay: Bactericidal activity against Escherichia coli K88 incubated for 4 hrs followed by culture spread on agar plates and cultured overnight; format: functional; conditions: K88, 4 h, read-out: MBC>99.9
Erythrocyte = assay: Hemolytic activity against human RBC after 1 hr; format: ADME, cell-based
Pseudomonas aeruginosa [18] = assay: Bactericidal activity against Pseudomonas aeruginosa PAO1 incubated for 4 hrs followed by culture spread on agar plates and cultured overnight; format: functional; conditions: PAO1, 4 h, read-out: MBC>99.9
Escherichia coli [19] = assay: Bactericidal activity against Escherichia coli 078 incubated for 4 hrs followed by culture spread on agar plates and cultured overnight; format: functional; conditions: Escherichia coli, 078, 4 h; read-out: MBC>99.9
Escherichia coli [20] = assay: Bactericidal activity against Escherichia coli ATCC 25922 incubated for 4 hrs followed by culture spread on agar plates and cultured overnight in presence of CaCl2; format: functional; conditions: ATCC 25922, 4 h, read-out: MBC>99.9
Pseudomonas aeruginosa [21] = assay: Bactericidal activity against Pseudomonas aeruginosa CICC 21625 clinical isolates incubated for 4 hrs followed by culture spread on agar plates and cultured overnight; format: functional; conditions: CICC 21625, 4 h, read-out: MBC>99.9
Escherichia coli [22] = assay: Bactericidal activity against Escherichia coli ATCC 25922 incubated for 4 hrs followed by culture spread on agar plates and cultured overnight in presence of 4 mg/ml trypsin; format: functional; conditions: ATCC 25922, 4 h, read-out: MBC>99.9
Escherichia coli [23] = assay: Induction of cytoplasmic membrane depolarization in Escherichia coli ATCC 25922 assessed as induction cytoplasmic ONPG release at 2 to 16 uM up to 120 mins by DiSC3-5 dye-based fluorescence spectrophotometric method; format: functional, organism-based
RAW264.7 = assay: Cytotoxicity against mouse RAW264.7 cells assessed as cell death after 18 to 24 hrs by MTT assay; format: cell-based
Salmonella typhimurium [24] = assay: Antimicrobial activity against Salmonella typhimurium C7731 after 24 hrs by NCCLS-protocol based assay; format: functional, Salmonella enterica subsp. enterica serovar Typhimurium; conditions: Salmonella enterica, C7731, 24 h
Pseudomonas aeruginosa [25] = assay: Antimicrobial activity against Pseudomonas aeruginosa CICC 21630 clinical isolates after 24 hrs by NCCLS-protocol based assay; format: functional; conditions: CICC 21630, 24 h
Escherichia coli [26] = assay: Antibacterial activity against Escherichia coli ATCC 25922 infected in ICR mouse assessed as log reduction in bacterial cells in liver at 5 mg/kg, ip administered at 5 mg/kg, ip dosed at 0.5, 2, 4 and 8 hrs post-infection; format: functional
[27] = Stability of the compound assessed as pepsin (unknown origin)-mediated compound hydrolysis by measuring compound helicity by CD spectroscopy; format: ADME; conditions: human
Pseudomonas aeruginosa [28] = assay: Antimicrobial activity against Pseudomonas aeruginosa ATCC 27853 at sub-MBC after 60 passages; format: functional, organism-based
Trypsin = Trypsin (Homo sapiens, UniProt P07477+P07478+P35030); assay: Stability of the compound assessed as trypsin (unknown origin)-mediated compound hydrolysis after 8 hrs by SDS-PAGE analysis; format: ADME, protein assay
[29] = Cytotoxicity against IPECJ2 cells assessed as cell death after 18 to 24 hrs by MTT assay; format: cell-based; conditions: Sus scrofa, IPEC-J2
[30] = Stability of the compound assessed as pepsin (unknown origin)-mediated compound hydrolysis after 8 hrs by SDS-PAGE analysis; format: ADME; conditions: human
Chymotrypsin [31] = biological target: T1, Chymotrypsin (Homo sapiens, UniProt Q99895+P17538+P40313+Q6GPI1); assay: Stability of the compound assessed as chymotrypsin (unknown origin)-mediated compound hydrolysis after 4 hrs by SDS-PAGE analysis; format: ADME, protein assay
Chymotrypsin [32] = biological target: T1, Chymotrypsin; assay: Stability of the compound assessed as chymotrypsin (unknown origin)-mediated compound hydrolysis by measuring compound helicity by CD spectroscopy; format: ADME, protein assay

Compound	MIC95 (Escherichia coli [1])	MBC (Escherichia coli [2])	MBC (Escherichia coli [3])	MIC95 (Escherichia coli [5])	MIC95 (Pseudomonas aeruginosa [6])	MIC95 (Escherichia coli [7])	MBC (Salmonella typhimurium [8])	MBC (Klebsiella pneumoniae)	Ratio [10]	MIC95 [11]	MBC (Acinetobacter baumannii)	MBC (Pseudomonas aeruginosa [12])	MIC95 (Escherichia coli [13])	MIC95 (Pseudomonas aeruginosa [14])	MBC (Escherichia coli [15])	MBC (Salmonella typhimurium [16])	MBC (Escherichia coli [17])	HC10 (Erythrocyte)	MBC (Pseudomonas aeruginosa [18])	MBC (Escherichia coli [19])	further results
CC[C@H](C)[C@H](NC(=O)CN)C(=O)NCC(=O)N[C@@H](C)C(=O)N[C@H](C(=O)N[C@@H](CC(C)C)C(=O)N[C@@H](CCCCN)C(=O)N[C@H](C(=O)N[C@@H](CC(C)C)C(=O)N[C@H](C(=O)N[C@H](C(=O)NCC(=O)N[C@@H](CC(C)C)C(=O)N1CCC[C@H]1C(=O)N[C@@H](C)C(=O)N[C@@H](CC(C)C)C(=O)N[C@H](C(=O)N[C@@H](CO)C(=O)N[C@@H](Cc1c[nH]c2ccccc12)C(=O)N[C@H](C(=O)N[C@@H](CCCCN)C(=O)N[C@@H](CCCNC(=N)N)C(=O)N[C@@H](CCCCN)C(=O)N[C@@H](CCCNC(=N)N)C(=O)N[C@@H](CCC(N)=O)C(=O)N[C@@H](CCC(N)=O)C(N)=O)[C@@H](C)CC)[C@@H](C)CC)[C@@H](C)O)[C@@H](C)O)C(C)C)C(C)C [MELITTIN]	0.5 µM (≈ 1.42 µg/mL)	64 µM	32 µM	2 µM (≈ 5.69 µg/mL)	2 µM (≈ 5.69 µg/mL)	1 µM (≈ 2.85 µg/mL)	2 µM (≈ 5.69 µg/mL)	2 µM (≈ 5.69 µg/mL)	1.31	2 µM (≈ 5.69 µg/mL)	1 µM (≈ 2.85 µg/mL)	4 µM (≈ 11.4 µg/mL)	2 µM (≈ 5.69 µg/mL)	2 µM (≈ 5.69 µg/mL)	2 µM (≈ 5.69 µg/mL)	2 µM (≈ 5.69 µg/mL)	1 µM (≈ 2.85 µg/mL)	2 µM	2 µM (≈ 5.69 µg/mL)	1 µM (≈ 2.85 µg/mL)	Activity (Escherichia coli [4]): Active; Activity (Escherichia coli [9]): Active; MBC (Escherichia coli [20]): 8 µM; MBC (Pseudomonas aeruginosa [21]): 4 µM (≈ 11.4 µg/mL); MBC (Escherichia coli [22]): > 64 µM; Activity (Escherichia coli [23]): Active; pIC50 (RAW264.7): 5.68; MIC95 (Salmonella typhimurium [24]): 1 µM (≈ 2.85 µg/mL); MIC95 (Pseudomonas aeruginosa [25]): 4 µM (≈ 11.4 µg/mL)
H-LKPLLKPLLKPLLKPLLKPLLKPLLKPL-NH2	2 µM	64 µM	2 µM	1 µM	1 µM	0.5 µM	2 µM	2 µM	9.01	2 µM	1 µM	8 µM	0.5 µM	8 µM	2 µM	2 µM	1 µM	> 128 µM	1 µM	2 µM	log(activity) (Escherichia coli [26]): 1; Stability [27]: Unstable; Activity (Pseudomonas aeruginosa [28]): Active; Stability (Trypsin): Stable; pIC50 [29]: 4.61; Stability [30]: Unstable; Stability (Chymotrypsin [31]): Unstable; Stability (Chymotrypsin [32]): Unstable; MBC (Escherichia coli [20]): > 128 µM; MBC (Pseudomonas aeruginosa [21]): 16 µM; MBC (Escherichia coli [22]): 1 µM; pIC50 (RAW264.7): 5.81; MIC95 (Salmonella typhimurium [24]): 2 µM; MIC95 (Pseudomonas aeruginosa [25]): 2 µM
